What was measured:
[1] = system: TSM (Thymidylate Synthase mRNA region) (RNA, mRNA element) CCCCCCCGCCGCGCCAUGCCUGUGGCCGGUCGG; conditions: column head extracted as (M), μ lost
[2] = system: NEO1A (RNA, aptamer) GGACUGGGCGAGAAGUUUAGUCC; test: ITC; conditions: for Kd: buffer IC (approximates intracellular salt; composition not shown), buffer IC, 25 °C
[3] = system: 16S (16S rRNA Decoding region) (RNA, rRNA) GGCGUCACACCUUCGGGUGAAGUCGCC; conditions: column head extracted as (M), μ lost
[4] = system: TOB3A (RNA, aptamer) GGCACGAGGUUUAGCUACACUCGUGCC; conditions: column head extracted as (M), μ lost
[5] = system: NEO4A (RNA, aptamer) CUUUGCGAUGUCCUUUAAUGGUCCGCGAGG; test: ITC; conditions: buffer IC (approximates intracellular salt; composition not shown), 25 °C

Row | SMILES | Dissociation Constants [1] [M] | Kd ([2]; N = 5) [µM] | Dissociation Constants [3] [M] | Dissociation Constants [4] [M] | Kd ([2]; N = 3) [µM] | binding ([2]; 20 μM aptamer in cell, tetracycline concentration not stated) | Kd ([5]; N = 2) [µM] | Kd ([5]; N = 3) [µM] | Kd ([2]; N = 8) [µM]
1 | NC[C@@H]1O[C@H](O[C@H]2[C@@H](O)[C@H](O[C@@H]3[C@@H](O)[C@H](N)C[C@H](N)[C@H]3O[C@H]3O[C@H](CO)[C@@H](O)[C@H](O)[C@H]3N)O[C@@H]2CO)[C@H](N)[C@@H](O)[C@@H]1O | 6.29e-06 ± 3.49e-06 | 1.4 ± 0.19 | 5.31e-06 ± 1.85e-06 | 1.72e-05 ± 1.96e-06 |  |  |  |  | 
2 | NC[C@H]1O[C@H](O[C@H]2[C@H](O)[C@@H](O[C@H]3O[C@H](CO)[C@@H](O)[C@H](N)[C@H]3O)[C@H](N)C[C@@H]2N)[C@H](N)C[C@@H]1O | 5.75e-06 ± 1.87e-06 |  | 1.03e-05 ± 3.87e-06 | 2.4e-07 ± 1e-07 | 4.8 ± 0.95 |  |  |  | 
3 | CN(C)[C@@H]1C(=O)C(C(N)=O)=C(O)[C@@]2(O)C(=O)C3=C(O)c4c(O)cccc4[C@@](C)(O)[C@H]3C[C@@H]12 |  |  |  |  |  | no |  |  | 
4 | NC[C@H]1O[C@H](O[C@H]2[C@H](O)[C@@H](O[C@H]3O[C@H](CO)[C@@H](O)[C@H](N)[C@H]3O)[C@H](N)C[C@@H]2N)[C@H](N)[C@@H](O)[C@@H]1O | 6.5e-06 ± 3.2e-06 | 0.75 ± 0.26 | 8.9e-06 ± 3.54e-06 | 2.43e-06 ± 1.37e-06 |  |  |  |  | 
5 | CN[C@@H]1[C@@H](O)[C@@H](O[C@@H]2[C@@H](O)[C@H](O[C@H]3O[C@H]([C@@H](C)O)[C@@H](O)[C@H](O)[C@H]3N)[C@@H](N)C[C@H]2N)OC[C@]1(C)O |  | 26 ± 9.3 |  |  |  |  |  |  | 
6 | NC[C@H]1O[C@H](O[C@H]2[C@H](O)[C@@H](O[C@H]3O[C@H](CO)[C@@H](O)[C@H](N)[C@H]3O)[C@H](N)C[C@@H]2N)[C@H](O)[C@@H](O)[C@@H]1O | 1.03e-05 ± 6.65e-06 |  | 3.71e-05 ± 4.38e-06 | 7.38e-05 ± 3.96e-06 | 43 ± 3.6 |  | 10.7 ± 4.2 |  | 
7 | NC[C@@H]1O[C@H](O[C@H]2[C@@H](O)[C@H](O[C@@H]3[C@@H](O)[C@H](N)C[C@H](N)[C@H]3O[C@H]3O[C@H](CN)[C@@H](O)[C@H](O)[C@H]3N)O[C@@H]2CO)[C@H](N)[C@@H](O)[C@@H]1O | 8.8e-07 ± 1.1e-07 |  | 1.93e-06 ± 5.8e-07 | 2.2e-06 ± 5e-07 |  |  |  | 0.099 ± 0.036 | 0.29 ± 0.054

— article PMC6200808 (2018)
